What was measured:
Format in all cases: cell-based
[1] = system: RT4; assay: Anti-proliferation assay (CellTiter-Glo 2.0), combination index, RT4
Experimental: (§1) Cell lines were obtained from ATCC or Health Science Research Resources Bank.
(§2) Each cell lines were collected by ordinary method, then suspended in indicated medium containing 10% fetal bovine serum in table 3. The number of cells seeded per well was set to 500 cells/20 μL. […] The concentration of each anti-cancer reagents set to 8 concentrations including 0 nM. After adding the medicine to the cells, the cells were further incubated at 37° C. for 3 days under 5% CO2. Cell survival rates were calculated by adding 20 μL of CellTiter-Glo(registered trademark) 2. 0 (Promega) solution to each well, incubating the cells at room temperature for 10 minutes, and then measuring the chemiluminescence intensity of each well using a plate reader (ARVO).
(§3) A combination index (CI) value at each combined concentration of the medicines was determined.

[2] = system: MKN45; assay: Anti-proliferation assay (CellTiter-Glo 2.0), combination index, MKN45
Experimental: as §1, §2, §3

[3] = system: NCI-H358; assay: Anti-proliferation assay (CellTiter-Glo 2.0), combination index, NCI-H358; conditions: for Description (combinatory effect by CI): Compound 1:combination drug molar ratio 1:9
Experimental: as §1, §2, §3

[4] = system: MV-4-11; assay: Anti-proliferation assay (CellTiter-Glo 2.0), combination index, MV-4-11
Experimental: as §1
384 well culture plate (781086, Greiner Bio-One International) was used for cell survival rate measurement assay. Each cell lines were collected by ordinary method, then suspended in indicated medium containing 10% fetal bovine serum in table 3. The number of cells seeded per well was set to 500 cells/20 μL. After incubation at 37° C. for 24 hours under 5% CO2, Compound 1 and additional compound having an antitumor effect or a vehicle (DMSO) was added to each well by using D300e Digital Dispenser (Tecan). The concentration of Compound 1 was set to 10 concentrations. The concentration of each anti-cancer reagents set to 8 concentrations including 0 nM. After adding the medicine to the cells, the cells were further incubated at 37° C. for 3 days under 5% CO2. Cell survival rates were calculated by adding 20 μL of CellTiter-Glo(registered trademark) 2. 0 (Promega) solution to each well, incubating the cells at room temperature for 10 minutes, and then measuring the chemiluminescence intensity of each well using a plate reader (ARVO).
as §3

[5] = Compound 1 13.7 + combination drug 123 nmol/L (1:9)
[6] = Compound 1 41.2 + combination drug 370 nmol/L (1:9)
[7] = Compound 1 123 + combination drug 1110 nmol/L (1:9)
[8] = Compound 1 370 + combination drug 3330 nmol/L (1:9)
[9] = Compound 1 1110 + combination drug 10000 nmol/L (1:9)
[10] = Compound 1:combination drug molar ratio 1:9
[11] = Compound 1 123 + combination drug 3330 nmol/L (1:27)
[12] = Compound 1 1.52 + combination drug 123 nmol/L (1:81)
[13] = Compound 1 4.57 + combination drug 370 nmol/L (1:81)
[14] = Compound 1 13.7 + combination drug 1110 nmol/L (1:81)
[15] = Compound 1 41.2 + combination drug 3330 nmol/L (1:81)
[16] = Compound 1 123 + combination drug 10000 nmol/L (1:81)
[17] = Compound 1:combination drug molar ratio 1:81
[18] = Compound 1 4.57 + combination drug 41.2 nmol/L (1:9)
[19] = Compound 1 13.7 + combination drug 370 nmol/L (1:27)
[20] = Compound 1 41.2 + combination drug 1110 nmol/L (1:27)
[21] = Compound 1 370 + combination drug 10000 nmol/L (1:27)
[22] = Compound 1 41.2 + combination drug 13.7 nmol/L (1:0.3)
[23] = Compound 1 370 + combination drug 123 nmol/L (1:0.3)
[24] = Compound 1 1110 + combination drug 370 nmol/L (1:0.3)
[25] = Compound 1 3330 + combination drug 1110 nmol/L (1:0.3)
[26] = Compound 1 123 + combination drug 370 nmol/L (1:3)
[27] = Compound 1 370 + combination drug 1110 nmol/L (1:3)
[28] = Compound 1 123 + combination drug 123 nmol/L (1:1)
[29] = Compound 1 370 + combination drug 370 nmol/L (1:1)
[30] = Compound 1 1110 + combination drug 1110 nmol/L (1:1)
[31] = Compound 1 3330 + combination drug 3330 nmol/L (1:1)
[32] = Compound 1 10000 + combination drug 10000 nmol/L (1:1)
[33] = Compound 1 41.2 nmol/L + Doxorubicin 13.7 nmol/L, molar ratio 1:0.3
[34] = Compound 1 123 nmol/L + Doxorubicin 41.2 nmol/L, molar ratio 1:0.3
[35] = Compound 1 370 nmol/L + Doxorubicin 123 nmol/L, molar ratio 1:0.3
[36] = Compound 1 3330 nmol/L + Doxorubicin 1110 nmol/L, molar ratio 1:0.3
[37] = Compound 1 10000 nmol/L + Doxorubicin 3330 nmol/L, molar ratio 1:0.3
[38] = Compound 1 123 nmol/L + Doxorubicin 123 nmol/L, molar ratio 1:1
[39] = Compound 1 370 nmol/L + Doxorubicin 370 nmol/L, molar ratio 1:1
[40] = Compound 1 1110 nmol/L + Doxorubicin 1110 nmol/L, molar ratio 1:1
[41] = Compound 1 3330 nmol/L + Doxorubicin 370 nmol/L, molar ratio 1:0.1
[42] = Compound 1 10000 nmol/L + Doxorubicin 1110 nmol/L, molar ratio 1:0.1

COc1cc2c(Oc3ccc4[nH]c(C)cc4c3F)ccnc2cc1OCC1(N)CC1 [Anlotinib]
CI [1, 5]: 0.501 | Fa [1, 5]: 0.3362 | CI [1, 6]: 0.444 | Fa [1, 6]: 0.5003 | CI [1, 7]: 0.387 | Fa [1, 7]: 0.7040 | CI [1, 8]: 0.326 | Fa [1, 8]: 0.8765 | CI [1, 9]: 0.316 | Fa [1, 9]: 0.9539 | Description (combinatory effect by CI) [1, 10]: Synergy (0.3-0.7) | CI [2, 11]: 0.755 | Fa [2, 11]: 0.7514 | CI [3, 6]: 0.557 | Fa [3, 6]: 0.3217 | CI [3, 7]: 0.416 | Fa [3, 7]: 0.5609 | CI [3, 8]: 0.390 | Fa [3, 8]: 0.7902 | CI [3, 9]: 0.488 | Fa [3, 9]: 0.9031 | Description (combinatory effect by CI) [3]: Synergy (0.3-0.7)

C#Cc1cccc(Nc2ncnc3cc(OCCOC)c(OCCOC)cc23)c1 [Erlotinib]
CI [4, 12]: 0.808 | Fa [4, 12]: 0.0915 | CI [4, 13]: 0.880 | Fa [4, 13]: 0.2460 | CI [4, 14]: 0.610 | Fa [4, 14]: 0.6556 | CI [4, 15]: 0.632 | Fa [4, 15]: 0.8799 | CI [4, 16]: 0.962 | Fa [4, 16]: 0.9472 | Description (combinatory effect by CI) [4, 17]: Synergy (0.3-0.7) | CI [1, 13]: 0.421 | Fa [1, 13]: 0.2843 | CI [1, 14]: 0.464 | Fa [1, 14]: 0.4079 | CI [1, 15]: 0.441 | Fa [1, 15]: 0.5677 | CI [1, 16]: 0.308 | Fa [1, 16]: 0.7514 | Description (combinatory effect by CI) [1, 17]: Synergy (0.3-0.7) | CI [3, 18]: 0.617 | Fa [3, 18]: 0.1600 | CI [3, 5]: 0.145 | Fa [3, 5]: 0.3804 | CI [3, 6]: 0.102 | Fa [3, 6]: 0.5542 | CI [3, 7]: 0.206 | Fa [3, 7]: 0.6026 | CI [3, 8]: 0.256 | Fa [3, 8]: 0.7034 | CI [3, 9]: 0.225 | Fa [3, 9]: 0.8178

Cc1nc(NC(=O)N2CCC[C@H]2C(N)=O)sc1-c1ccnc(C(C)(C)C(F)(F)F)c1 [Alpelisib]
CI [1, 12]: 0.255 | Fa [1, 12]: 0.0658 | CI [1, 14]: 0.247 | Fa [1, 14]: 0.2690 | CI [1, 15]: 0.318 | Fa [1, 15]: 0.4427 | CI [1, 16]: 0.528 | Fa [1, 16]: 0.5855 | CI [2, 19]: 0.700 | Fa [2, 19]: 0.1253 | CI [2, 20]: 0.426 | Fa [2, 20]: 0.4108 | CI [2, 11]: 0.655 | Fa [2, 11]: 0.5920 | CI [2, 21]: 0.772 | Fa [2, 21]: 0.8141 | Description (combinatory effect by CI) ([2]; Compound 1:combination drug molar ratio 1:27): Synergy (0.3-0.7) | CI [3, 6]: 0.451 | Fa [3, 6]: 0.1532 | CI [3, 7]: 0.356 | Fa [3, 7]: 0.4353 | CI [3, 8]: 0.589 | Fa [3, 8]: 0.5959 | CI [3, 9]: 0.844 | Fa [3, 9]: 0.7671 | Description (combinatory effect by CI) [3]: Synergy (0.3-0.7)

CNC(=O)c1cc(Oc2ccc(NC(=O)Nc3ccc(Cl)c(C(F)(F)F)c3)cc2)ccn1 [Sorafenib]
CI [4, 22]: 0.116 | Fa [4, 22]: 0.9439 | Fa ([4]; Compound 1 123 + combination drug 41.2 nmol/L (1:0.3)): 0.9578 | CI [4, 23]: 0.301 | Fa [4, 23]: 0.9643 | CI [4, 24]: 0.759 | Fa [4, 24]: 0.9665 | CI [4, 25]: 0.865 | Fa [4, 25]: 0.9766

CC(C)Nc1cc(-c2c[nH]c(C(=O)N[C@H](CO)c3cccc(Cl)c3)c2)c(Cl)cn1 [Ulixertinib]
CI [1, 5]: 0.759 | Fa [1, 5]: 0.1321 | CI [1, 6]: 0.310 | Fa [1, 6]: 0.3352 | CI [1, 7]: 0.330 | Fa [1, 7]: 0.4921 | CI [1, 8]: 0.622 | Fa [1, 8]: 0.5670 | Description (combinatory effect by CI) [1, 10]: Synergy (0.3-0.7) | CI [2, 26]: 0.483 | Fa [2, 26]: 0.5887 | CI [2, 27]: 0.644 | Fa [2, 27]: 0.7816 | Description (combinatory effect by CI) ([2]; Compound 1:combination drug molar ratio 1:3): Synergy (0.3-0.7) | CI [3, 28]: 0.709 | Fa [3, 28]: 0.2823 | CI [3, 29]: 0.379 | Fa [3, 29]: 0.5072 | CI [3, 30]: 0.237 | Fa [3, 30]: 0.7490 | CI [3, 31]: 0.260 | Fa [3, 31]: 0.8778 | CI [3, 32]: 0.284 | Fa [3, 32]: 0.9536

COc1cccc2c1C(=O)c1c(O)c3c(c(O)c1C2=O)C[C@@](O)(C(=O)CO)C[C@@H]3O[C@H]1C[C@H](N)[C@H](O)[C@H](C)O1 [Doxorubicin]
CI [1, 33]: 0.866 | Fa [1, 33]: 0.2952 | CI [1, 34]: 0.403 | Fa [1, 34]: 0.5056 | CI [1, 35]: 0.554 | Fa [1, 35]: 0.6537 | CI [1, 36]: 0.191 | Fa [1, 36]: 0.9964 | CI [1, 37]: 0.063 | Fa [1, 37]: 0.9999 | CI [2, 38]: 0.596 | Fa [2, 38]: 0.5818 | CI [2, 39]: 0.267 | Fa [2, 39]: 0.8738 | CI [2, 40]: 0.361 | Fa [2, 40]: 0.9317 | CI [3, 41]: 0.845 | Fa [3, 41]: 0.7275 | CI [3, 42]: 0.249 | Fa [3, 42]: 0.9706

Source: patent US20230146795A1, “ENHANCEMENT OF ANTI-TUMOR ACTIVITY OF SHP2 INHIBITOR PYRIMIDINONE IN COMBINATION WITH NOVEL CANCER MEDICINES IN CANCERS” (TAIHO PHARMACEUTICAL CO., LTD., priority 2020, published 2023)
